Data published in article PMC7904743, “WIDOCK: a reactive docking protocol for virtual screening of covalent inhibitors” (Journal of Computer-Aided Molecular Design, 2021).
Entries after “also recorded” stand apart in the source; their conditions may differ. Read-outs that look alike come from different tables or passages of the source.

Legend:
KRAS^G12C = test system: KRAS^G12C; set-up: method as in PMID 28621541; details: > 50% labeling at 100 μM considered active; cited from earlier work
[1] = Kinetic measurement of adduct formation with L-glutathione (GSH) by HPLC–MS; format: physicochemical; set-up: unit not given here
Procedure: Electrophilic fragments tested against MurA, CatB and MAO-A (25–53, structures shown in Supporting Figure S2 and SMILES provided in Supporting Table S1) represent eight different warhead chemotypes reacting via two reaction mechanisms: Michael-type nucleophilic addition and nucleophilic substitution. The intrinsic thiol reactivities (see Table 1) were determined by kinetic measurement of adduct formation with L-glutathione (GSH), a widely used cysteine surrogate, by an HPLC–MS methodology, as described in the referred study.

MurA [2] = target: T1, MurA (Escherichia coli, UniProt P0A749); details: MurA residual activity; active if lower than 60%
Procedure: (§1) These fragments were measured in single point enzyme activity assays at 100 μM concentration against MurA and CatB.

CatB [3] = target: T2, CatB (Homo sapiens, UniProt P07858); experiment: CatB single point enzyme activity assay (residual activity); details: for remaining activity at 100 µM: read-out: RA
Procedure: as §1

CatB [4] = target: T2, CatB; set-up: method as in PMID 30321804; details: cited from earlier work; for CatB RA (%): residual activity at 100 μM, single point; for experimental activity class against CatB: < 60% residual activity at 100 μM considered active
[5] = cited from earlier work
MurA [6] = target: T1, MurA; details: cited from earlier work; for MurA RA (%): residual activity at 100 μM, single point; for experimental activity class against MurA: < 60% residual activity at 100 μM considered active
[7] = target: T3, Recombinant human microsomal MAO-A (Homo sapiens, UniProt P21397); experiment: MAO-A activity assay (fluorimetric, Amplex Red, p-tyramine); format: biochemical; details: for RA: MAO-A residual activity, active if lower than 60%
T3 construct: purchased Sigma Aldrich; host or cells: baculovirus infected insect cells (BTI-TN-5B1-4)
T3 sequence (P21397 1-527): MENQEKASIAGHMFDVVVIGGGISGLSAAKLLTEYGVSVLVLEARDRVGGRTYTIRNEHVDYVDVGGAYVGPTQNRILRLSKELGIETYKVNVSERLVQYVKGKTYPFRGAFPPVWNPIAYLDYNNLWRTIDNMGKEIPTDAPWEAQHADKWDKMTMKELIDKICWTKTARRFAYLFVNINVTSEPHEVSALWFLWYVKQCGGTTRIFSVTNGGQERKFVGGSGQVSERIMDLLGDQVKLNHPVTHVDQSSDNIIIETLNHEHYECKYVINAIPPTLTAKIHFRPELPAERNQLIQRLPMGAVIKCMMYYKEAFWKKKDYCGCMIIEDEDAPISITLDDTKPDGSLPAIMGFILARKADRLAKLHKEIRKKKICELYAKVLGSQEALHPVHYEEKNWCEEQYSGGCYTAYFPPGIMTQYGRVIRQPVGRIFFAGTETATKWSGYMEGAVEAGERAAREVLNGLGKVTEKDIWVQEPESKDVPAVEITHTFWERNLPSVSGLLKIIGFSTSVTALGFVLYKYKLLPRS
Procedure: The effects of the test compounds on MAO-A were investigated using a fluorimetric assay, following a previously described methodology. The inhibitory activity of the compounds was evaluated by their effects on the production of hydrogen peroxide (H2O2) from p-tyramine. The production of H2O2 was detected using Amplex Red reagent in the presence of horseradish peroxidase, where a highly sensitive fluorescent product, resorufin, is produced at stoichiometric amounts. Recombinant human microsomal MAO-A enzyme expressed in baculovirus infected insect cells (BTI-TN-5B1-4), horse-radish peroxidase (type II, lyophilized powder), and p-tyramine hydrochloride were obtained from Sigma Aldrich. 10-Acetyl-3,7-dihydroxyphenoxazine (Amplex Red reagent) was synthesized as described in the literature.
Briefly, 100 µL 50 mM sodium phosphate buffer (pH 7.4, 0.05% Triton X-114) containing the compounds and MAO-A were incubated for 30 min at 37 °C in a flat-bottomed black 96-well microplate, and placed in a dark microplate reader chamber. After the pre-incubation, the reaction was started by adding the final concentrations of 200 µM Amplex Red reagent, 2 U/mL horseradish peroxidase, and 1 mM p-tyramine (final volume, 200 µL). The production of resorufin was quantified based on the fluorescence generated (λex = 530 nm, λem = 590 nm) at 37 °C over a period of 30 min, during which time the fluorescence increased linearly. For control experiments, DMSO was used instead of the appropriate dilutions of the compounds in DMSO. To determine the blank value (b), phosphate-buffered solution replaced the enzyme solution. The initial velocities were calculated from the trends obtained, with each measurement carried out in duplicate. The specific fluorescence emission to obtain the final result was calculated after subtraction of the blank activity (b).

human MAO-A = target: T4, human MAO-A (Homo sapiens, UniProt P21397); experiment: Labelling of human MAO-A, tryptic digestion and LC–MS/MS; format: binding; details: 24 h at 4 °C, tryptic digestion
T4 sequence (P21397 1-527): T3 sequence (P21397 1-527)

MurA [8] = target: T1, MurA; experiment: biochemical; details: read-out: RA
Procedure: as §1

[9] = half-life of adduct formation with L-glutathione

T1 sequence (P0A749 whole entry): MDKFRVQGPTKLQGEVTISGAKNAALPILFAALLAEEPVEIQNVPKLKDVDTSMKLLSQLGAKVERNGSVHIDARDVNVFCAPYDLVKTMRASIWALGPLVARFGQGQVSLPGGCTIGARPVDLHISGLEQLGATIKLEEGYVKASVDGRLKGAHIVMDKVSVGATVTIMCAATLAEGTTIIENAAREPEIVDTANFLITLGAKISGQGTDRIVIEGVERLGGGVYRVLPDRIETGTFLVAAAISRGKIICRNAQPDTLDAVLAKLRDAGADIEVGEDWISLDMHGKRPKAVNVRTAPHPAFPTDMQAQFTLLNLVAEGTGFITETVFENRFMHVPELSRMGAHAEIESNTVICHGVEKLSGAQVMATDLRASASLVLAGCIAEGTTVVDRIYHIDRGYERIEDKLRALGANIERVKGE

Row | SMILES | experimental activity class against KRAS^G12C (KRAS^G12C) | Reactivity, Experimental ln(k) vs GSH [1] | RA (MurA [2]) [%] | RA (CatB [3]; CatB residual activity, active if lower than 60%) [%] | CatB RA (%) (CatB [4]) | GSH half-life [5, 9] [h] | MurA RA (%) (MurA [6]) | RA [7] [%] | covalent labelling of MAO-A (MS/MS) (human MAO-A) | experimental activity class against MurA (MurA [6]) | remaining activity at 100 µM (MurA [8]) [%] | remaining activity at 100 µM (CatB [3]) [%] | experimental activity class against CatB (CatB [4]) | GSH half-life ([5]; buffer) [h] | MAO-A inhibition (experimental) ([7]; MAO-A inhibitory assay)
1 | Cc1ccc2[nH]ncc2c1-c1c(Cl)cc2c(N3CCN(C(=O)n4ccnc4)CC3)ncnc2c1F [Compound 14, c1n[nH]c(c12)ccc(C)c2-c(c(Cl)c3)c(F)c(c34)ncnc4N5CCN(CC5)C(=O)n6ccnc6] | experimental actives | – | – | – | – | – | – | – | – | – | – | – | – | – | –
2 | Cc1ccc2[nH]ncc2c1-c1c(Cl)cc2c(N3CCC(NC(=O)CCl)CC3)ncnc2c1F [Compound 17, c1n[nH]c(c12)ccc(C)c2-c(c(Cl)c3)c(F)c(c34)ncnc4N5CCC(CC5)NC(=O)CCl] | experimental actives | – | – | – | – | – | – | – | – | – | – | – | – | – | –
3 | C/C=C/C#N [Compound 28, C/C=C/C#N] | – | -4.085 | 101 | 87 | 87 | 41.2 | 101 | 81 | – | – | – | – | – | – | –
4 | C=CC(=O)Nc1cc(C(F)(F)F)cc(C(F)(F)F)c1 [Compound 32, C=CC(=O)Nc1cc(C(F)(F)F)cc(C(F)(F)F)c1] | – | – | – | – | – | – | – | – | double modified; also recorded: forms a covalent bond with Cys323 | experimental MurA actives | – | – | – | – | –
5 | O=C1C=CC(=O)N1c1ccccc1 [Compound 41, O=C1C=CC(=O)N1c1ccccc1] | – | 1.936 | – | – | 82 | < 0.1 | 1 | 1 | – | experimental MurA actives | 0.8 | 82 | – | – | –
6 | CC(C)(C)OC(=O)N1CC=CC1=O [Compound 42, CC(C)(C)OC(=O)N1CC=CC1=O] | – | -5.449 | – | – | 85 | 161 | 92 | 47 | – | – | 92 | 85 | – | – | –
7 | O=C1C=CCO1 [Compound 43, O=C1C=CCO1] | – | -5.634 | – | – | 99 | 194 | 75 | 99 | – | – | 75 | 99 | – | – | –
8 | O=C(CBr)c1ccc(-c2ccccc2)cc1 [Compound 44, O=C(CBr)c1ccc(-c2ccccc2)cc1] | – | 1.936 | – | – | 0 | < 0.1 | 0 | 14 | – | – | 0.1 | 0.1 | experimental actives | – | –
9 | O=C(CBr)c1ccccc1 [Compound 45, O=C(CBr)c1ccccc1] | – | 1.936 | – | – | 27 | – | 2 | 39 | – | – | 2 | 27 | – | < 0.1 | found to inhibit MAO-A activity
10 | COc1ccccc1C(=O)CBr [Compound 46, COc1ccccc1C(=O)CBr] | – | 1.936 | – | – | 55 | < 0.1 | 3 | 39 | – | experimental MurA actives | 3 | 55 | experimental actives | – | –
11 | Cc1ccccc1NC(=O)CCl [Compound 47, Cc1ccccc1NC(=O)CCl] | – | -6.153 | – | – | 86 | 326 | 83 | 78 | – | – | 83 | 86 | – | – | –
12 | CC(Br)C(=O)Nc1cc(C(F)(F)F)cc(C(F)(F)F)c1 (stereo not shown) [Compound 50, CC(Br)C(=O)Nc1cc(C(F)(F)F)cc(C(F)(F)F)c1] | – | -4.922 | – | – | 91 | 95.2 | 35 | 83 | – | – | 35 | 91 | – | – | –
13 | COc1cc(NC(=O)CCl)cc(OC)c1 [Compound 51, COc1cc(NC(=O)CCl)cc(OC)c1] | – | -3.498 | – | – | 87 | 22.9 | 61 | 69 | – | – | 61 | 87 | – | – | –
